Results as given in patent US6605704B1, “Plant-origin regulator protein and nucleic acid encoding the same” (Japan Tobacco Inc., priority 1999, dated 2003).
Like-named read-outs stand apart in the source and are kept apart here.

What was measured:
mRNA of ZmCip1 [1] = test: Northern analysis after t-zeatin, benzyladenine or abscisic acid treatment of cut leaves; format: cell-based, maize (Zea mays L.cv. Golden Cross Bantam T51); settings: 100 or 180 minutes, nitrogen-deficient leaves
Procedure: (§1) The cut leaves of the maize cultivated under the low-nitrogen condition as mentioned above was treated with 5 μM t-zeatin or with water for 0 minute, 30 minutes, 45 minutes, 60 minutes or 90 minutes, and the ⅓ portions from the distal ends of the leaves was collected. After freezing the collected leaves with liquid nitrogen, RNAs were extracted by the guanidine thiocyanate/cesium chloride method. Ten micrograms of the obtained RNAs were fractionated by formaldehyde gel (1%) electrophoresis and the resultant was transferred to a nylon membrane. Hybridization was performed using ZmCip1 cDNA or maize ubiquitin gene as a probe.
(10) The cut leaves of the maize cultivated under the low-nitrogen condition as mentioned above were treated with 5 μM t-zeatin, 5 μM benzyladenine, 10 μM±abscisic acid or with water for 100 minutes or 180 minutes, and Northern analysis was performed as in (4).

mRNA of ZmCip1 [2] = test: Northern analysis of induction of expression of CIP1 by ammonium ion, cut leaves; format: cell-based, maize (Zea mays L.cv. Golden Cross Bantam T51); settings: 6 mM NH4+, nitrogen-deficient maize green leaves
Procedure: (§2) The cut leaves of the maize cultivated under the low-nitrogen condition as mentioned above were treated with 16 mM NaNO3 solution or with 0.08 mM NaNO3 solution for 0 hour, 2 hours, 5 hours, […] or 24 hours and Northern analysis was carried out in the same manner as in (4) except that the weight of the RNAs applied to each gel was 20 μg, respectively, and that a non-coding region of ZmCip1 was used as a probe.
The cut leaves of the maize cultivated under the low-nitrogen condition as mentioned above were treated with 6 mM NH4^+ solution or with 0.08 mM NaNO3 solution for 0 to 7 hours and Northern analysis was carried out in the same manner as in (5) except that the weight of the RNAs applied to each gel was 15 μg.

mRNA of ZmCip 1 = test: Northern analysis of induction of expression of CIP1 by cytokinin treatment and cycloheximide treatment; format: cell-based, maize (Zea mays L.cv. Golden Cross Bantam T51); settings: as printed under experiment (8), nitrogen-deficient maize green leaves
Procedure: as §2
The cut leaves of the maize cultivated under the low-nitrogen condition as mentioned above were treated (i) with water for 60 minutes and then with water for 90 minutes, (ii) with water for 60 minutes and then with 5 μM t-zeatin for 90 minutes, (iii) with 20 μg/ml of cycloheximide for 60 minutes and then with 20 μg/ml cycloheximide and 5 μM t-zeatin for 90 minutes, or (iv) with 20 μg/ml of cycloheximide for 60 minutes and then with 20 μg/ml of cycloheximide for 90 minutes, and Northern analysis was performed in the same manner as in (5) except that the amount of the RNAs applied to each gel was 30 μg.

mRNA of ZmCip1 [3] = settings: 16 mM NaNO3, 5 hours after treatment
Procedure: as §2
The maize cultivated under the low-nitrogen condition as mentioned above was treated with 16 mM NaNO3 solution or with 0.08 mM NaNO3 solution for 5 hours, and its leaf blades, leaf sheaths and roots were separately collected, followed by Northern analysis in the same manner as in (5) except that the amount of the RNAs from leaf sheaths or roots applied to each gel was 30 μg.

mRNA of ZmCip1 [4] = system: mRNA of ZmCip1
Procedure: as §1, §2

mRNA of ZmCip1 [5] = settings: 10^−11 to 10^−7 M tested, 100 or 180 minutes, cut leaves
Procedure: as §2

mRNA of ZmCip1 [6] = settings: 5 μM, 100 minutes, nitrogen-deficient leaves
Procedure: as §2
The cut leaves of the maize cultivated under the low-nitrogen condition as mentioned above were treated with 5 μM t-zeatin, 5 μM zeatin-O-glucoside or with water for 100 minutes, and Northern analysis was performed in the same manner as in (5), except that the amount of the RNAs applied to each gel was 15 μg.

mRNA of ZmCip1 [7] = settings: 5 μM, nitrogen-deficient maize green leaves
Procedure: as §1

Procedure for ZmCip1 gene: (3) Assay of Induction of Expression of CIP 1 by Cytokinin Treatment (Run-Off Transcription Assay) Run-off transcription assay for expression of ZmCip1 gene was carried out. Nuclei were isolated from maize mesophyll cells and its RNA synthesis activity was measured according to a reported method (I. Suzuki, C. Cretin, T. Omata, T. Sugiyama, Plant Physiol.105:1223,1994). The RNAs synthesized by the isolated nuclei were fractionated by formaldehyde gel electrophoresis and the fractionated RNAs were transferred to a nylon membrane, followed by hybridization with ^32P-labeled ZmCip 1 cDNA or C4Ppc1 cDNA. The intensity of the detected signal was measured by Bio Imaging Analyzer (BAS2000, Fuji Film).

For c1ccc(CNc2ncnc3nc[nH]c23)cc1 [benzyladenine], the “induction of expression of ZmCip1 mRNA” value (mRNA of ZmCip1 [1]; 5 μM) was “induced”.

In the case of N [ammonium ion], the “time after treatment at which ZmCip1 mRNA was confirmed” value (mRNA of ZmCip1 [2]) is reported as 5 h, the “time after treatment at which the gene was strongly expressed” value (mRNA of ZmCip1 [2]) is reported as 6 to 7 h and the “time after treatment at which ZmCip1 mRNA was confirmed” value (mRNA of ZmCip 1) is reported as 5 h. For the same compound, the “time after treatment at which the gene was strongly expressed” value (mRNA of ZmCip 1) was 6 to 7 h.

In the case of O=[N+]([O-])[O-].[Na+] [nitrate ion, NaNO3], the “accumulation of ZmCip1 mRNA in green leaves” value (mRNA of ZmCip1 [3]; nitrogen-deficient maize green leaves) is reported as “confirmed”, the “expression of ZmCip1 mRNA in roots” value (mRNA of ZmCip1 [3]; roots) is reported as “scarcely observed” and the “expression of the gene 24 hours after the treatment” value (mRNA of ZmCip1 [4]; 16 mM NaNO3, 24 hours) is reported as “scarcely observed”. For the same compound, the “time after treatment at which accumulation of ZmCip1 mRNA was confirmed” value (mRNA of ZmCip1 [4]; 16 mM NaNO3, nitrogen-deficient green leaves) was 5 to 6 h.

CC1=CC(=O)CC(C)(C)[C@@]1(O)/C=C/C(C)=C\C(=O)O [abscisic acid] was tested, and the “induction of expression of ZmCip1 mRNA” value (mRNA of ZmCip1 [1]; 10 μM) was “slightly induced”.

With C/C(=C\CNc1ncnc2[nH]cnc12)CO [t-zeatin] the “low level of t-zeatin at which expression of ZmCip1 mRNA was induced” value (mRNA of ZmCip1 [5]) was 10^−9 M, the “induction of expression of ZmCip1 mRNA” value (mRNA of ZmCip1 [1]; 5 μM) was “induced” and the “induction of expression of ZmCip1 mRNA” value (mRNA of ZmCip1 [6]) was “induced”. For the same compound, the “time after treatment at which accumulation of ZmCip1 mRNA was confirmed” value (mRNA of ZmCip1 [7]) was 30 min, the “time after treatment at which the gene was strongly expressed” value (mRNA of ZmCip1 [7]) was 45 to 90 min and the “treatment time that causes transcription of ZmCip1 mRNA” value (ZmCip1 gene; cut leaves of maize cultivated under low-nitrogen condition, nuclei from mesophyll cells) was 20 min. For the same compound, the “timing of ZmCip1 transcription compared with transcription of C4Ppc1 mRNA” value (ZmCip1 gene; same leaves treated with t-zeatin) was “much earlier stage”.

For zeatin-O-glucoside, the “induction of expression of ZmCip1 mRNA” value (mRNA of ZmCip1 [6]) was “induced”.
